How the values were obtained:
[1] = system: A549 (human lung adenocarcinoma cell lines); experiment: CCK8 cytotoxicity assay; assay type: cell-based; conditions: Homo sapiens, A549, 60 h; for inhibition at 2.5 µM / inhibition at 25 µM: read-out: growth inhibition ratio (mean ± SD); for IC50: read-out: IC50 A549
Description: (§1) Cytotoxicity screens were performed to assess the in vitro anticancer activity of the synthesized sinomenine derivatives 6a–6l on the various cancer cell lines MCF-7, Hela, SW480, and A549, as well as on Hek293 as a normal cell line, at doses of 2.5 and 25 μM. The obtained inhibition ratios data were used to construct a heat map (Figure 3, Tables S1 and S2) in order to select compounds that exert cancer cell line-specific cytotoxicity. Then, the IC50 values of the promising compound were determined. Cisplatin was used as a reference standard. The antiproliferative activity was based on the evaluation of the percent viability using the CCK8 assay, which is a rapid and sensitive method for determining the number of viable cells in culture. In the presence of electronic coupling reagents, WST-8 can be reduced by a dehydrogenase in the mitochondria to produce a highly water-soluble orange-yellow formazan product. Its color is proportional to the proliferation of the number of viable cells and is related to cytotoxicity. Using a microplate reader to measure the OD value can indirectly reflect the number of living cells at 450 nm wavelength.
(§2) To understand structure–function relationships, these selected compounds were subjected to subsequent analyses. All six compounds (6a and 6c–6g) were further examined to determine their IC50 concentrations on the previously mentioned cell lines, and their efficacy was compared to the reference drug cisplatin. For this, six compounds and cisplatin were evaluated on Hela, MCF-7, SW480, and A549, and on noncancerous Hek293 cell lines at various concentrations for 60 h. IC50 values were calculated (Table 2).
(§3) The MCF-7 (human breast cancer cell lines), Hela (human cervical cancer cell lines), SW480 (human colon adenocarcinoma cell lines), A549 (human lung adenocarcinoma cell lines) and nontoxic normal cells Hek293 (human embryonic kidney cell lines) cells were used to measure the cytotoxicity of the 6a–6l. They were obtained from the Beijing Normal University (Beijing, China). The test cell lines were cultured in DMEM, IMDM, F12 and DMEM nutrient medium containing 10% heat-inactivated fetal bovine serum, […] and 100 units/mL penicillin in a humified, 5% (v/v) CO2 atmosphere at 37 °C.
(§4) Cell viability was estimated using the CCK8 assay. Tumor cells ([…]) viz. MCF-7, Hela, SW480, A549 and nontoxic normal cells Hek293 were seeded in medium containing Corning® 96-well tissue culture plates at confluences of […], respectively, in Incucyte ZOOM. Fresh medium (100 μL) containing different concentrations of the test sample was added after 12 h of seeding. The microtiter plates were incubated at 37 °C in a humidified incubator with 5% CO2 for 60 h. Triplicates from each concentration were used. Negative control cells were incubated without sample and cisplatin as a positive control. At the end of treatment, the numbers of viable cells were determined by the CCK8 test. In brief, the media was removed from the 96 well plates and replaced with 100 μL of fresh culture medium with 10% CCK8 solution added to each well including the untreated controls. The 96 well plates were then incubated at 37 °C and 5% CO2 for 1–4 h. Then, the absorbance was measured at 450 nm using a BMG LABTECH®-POLAR star Omega microplate reader (Ortenberg, Germany) to determine the number of viable cells, and the percentage of viability was calculated as ((ODt- ODb/ODc- ODb)) × 100%, where ODt is the mean optical density of wells treated with the tested sample, ODc is the mean optical density of wells treated with DMSO and ODb is the mean optical density of PBS wells without cells. The relation between surviving cells and drug concentrations were plotted to get the survival curve of each tumor cell line after treatment with the specified compound. […]

[2] = system: Hela (human cervical cancer cell lines); experiment: CCK8 cytotoxicity assay; assay type: cell-based; conditions: Homo sapiens, HeLa, 60 h; for inhibition at 2.5 µM / inhibition at 25 µM: read-out: growth inhibition ratio (mean ± SD); for IC50: read-out: IC50 Hela
Description: as §1, §2, §3, §4

[3] = system: MCF-7 (human breast cancer cell lines); experiment: CCK8 cytotoxicity assay; assay type: cell-based; conditions: Homo sapiens, MCF7, 60 h; for inhibition at 2.5 µM / inhibition at 25 µM: read-out: growth inhibition ratio (mean ± SD); for IC50: read-out: IC50 MCF-7
Description: as §1, §2, §3, §4

[4] = system: SW480 (human colon adenocarcinoma cell lines); experiment: CCK8 cytotoxicity assay; assay type: cell-based; conditions: Homo sapiens, SW480, 60 h; for inhibition at 2.5 µM / inhibition at 25 µM: read-out: growth inhibition ratio (mean ± SD); for IC50: read-out: IC50 SW480
Description: as §1, §2, §3, §4

[5] = system: Hek293 (human embryonic kidney cell lines); experiment: CCK8 cytotoxicity assay, normal cells; assay type: cell-based; conditions: Homo sapiens, HEK293, 60 h; for inhibition at 2.5 µM / inhibition at 25 µM: read-out: growth inhibition ratio (mean ± SD); for IC50: read-out: IC50 Hek293
Description: as §1, §2, §3, §4

## COC1=C[C@@H]2[C@@H]3Cc4c(CN5CCCC5)cc(OC)c(OC(=O)Cc5ccccc5)c4[C@]2(CCN3C)CC1=O [6h, (4bR,8aS,9S)-3,7-dimethoxy-11-methyl-6-oxo-1-(pyrrolidin-1-ylmethyl)-6,8a,9,10-tetrahydro-5H-9,4b-(epiminoethano)phenanthren-4-yl 2-phenylacetate]
[1]
  inhibition at 2.5 µM: 20.6 ± 0.77%
  inhibition at 25 µM: 52.3 ± 0.76%
[2]
  inhibition at 2.5 µM: 11.2 ± 10%
  inhibition at 25 µM: 21.2 ± 4.4%
[3]
  inhibition at 2.5 µM: 5.79 ± 10%
  inhibition at 25 µM: 0%
[4]
  inhibition at 2.5 µM: 28.2 ± 10.3%
  inhibition at 25 µM: 37.8 ± 9.83%
[5]
  inhibition at 2.5 µM: 17.4 ± 1.49%
  inhibition at 25 µM: 46 ± 22.4%
other
  melting point: 165 to 168 °C

## COC1=C[C@@H]2[C@@H]3Cc4c(CN5CCCC5)cc(OC)c(OC(=O)Cc5ccc(Cl)cc5Cl)c4[C@]2(CCN3C)CC1=O [6d, (4bR,8aS,9S)-3,7-dimethoxy-11-methyl-6-oxo-1-(pyrrolidin-1-ylmethyl)-6,8a,9,10-tetrahydro-5H-9,4b-(epiminoethano)phenanthren-4-yl 2-(2,4-dichlorophenyl)acetate]
[1]
  IC50: 11.6 ± 1.61 µM
  inhibition at 2.5 µM: 29.59 ± 0.16%
  inhibition at 25 µM: 93.02 ± 0.2%
[2]
  IC50: 8.2 ± 0.52 µM
  inhibition at 2.5 µM: 10.3 ± 4.44%
  inhibition at 25 µM: 93.1 ± 0.17%
[3]
  IC50: 5.73 ± 0.36 µM
  inhibition at 2.5 µM: 0%
  inhibition at 25 µM: 88.6 ± 2.73%
[4]
  IC50: 6.08 ± 0.28 µM
  inhibition at 2.5 µM: 29.1 ± 6.92%
  inhibition at 25 µM: 94.2 ± 3.21%
[5]
  IC50: 3.46 ± 0.02 µM
  inhibition at 2.5 µM: 42.6 ± 0.84%
  inhibition at 25 µM: 84.6 ± 4.34%
other
  melting point: 82 to 86 °C

## COC1=C[C@@H]2[C@@H]3Cc4c(CN5CCCC5)cc(OC)c(OC(=O)Cc5ccccc5F)c4[C@]2(CCN3C)CC1=O [6l, (4bR,8aS,9S)-3,7-dimethoxy-11-methyl-6-oxo-1-(pyrrolidin-1-ylmethyl)-6,8a,9,10-tetrahydro-5H-9,4b-(epiminoethano)phenanthren-4-yl 2-(2-fluorophenyl)acetate]
[1]
  inhibition at 2.5 µM: 13.2 ± 4.88%
  inhibition at 25 µM: 47.1 ± 5.4%
[2]
  inhibition at 2.5 µM: 0.61 ± 0.6%
  inhibition at 25 µM: 29 ± 1.88%
[3]
  inhibition at 2.5 µM: 4.61 ± 4.79%
  inhibition at 25 µM: 9.52 ± 8.26%
[4]
  inhibition at 2.5 µM: 3.91 ± 0.85%
  inhibition at 25 µM: 16.5 ± 0.53%
[5]
  inhibition at 2.5 µM: 12.7 ± 2.89%
  inhibition at 25 µM: 68.8 ± 13.3%
other
  melting point: 178 to 180 °C

## COC1=C[C@@H]2[C@@H]3Cc4c(CN5CCCC5)cc(OC)c(OC(=O)Cc5ccc(OC)cc5)c4[C@]2(CCN3C)CC1=O [6i, (4bR,8aS,9S)-3,7-dimethoxy-11-methyl-6-oxo-1-(pyrrolidin-1-ylmethyl)-6,8a,9,10-tetrahydro-5H-9,4b-(epiminoethano)phenanthren-4-yl 2-(4-methoxyphenyl)acetate]
[1]
  inhibition at 2.5 µM: 23.5 ± 0.76%
  inhibition at 25 µM: 51.77 ± 0.5%
[2]
  inhibition at 2.5 µM: 7.79 ± 6.01%
  inhibition at 25 µM: 29.2 ± 5.29%
[3]
  inhibition at 2.5 µM: 11.7 ± 5.99%
  inhibition at 25 µM: 0%
[4]
  inhibition at 2.5 µM: 28.6 ± 9.02%
  inhibition at 25 µM: 38.9 ± 9.65%
[5]
  inhibition at 2.5 µM: 13.3 ± 0.21%
  inhibition at 25 µM: 46.9 ± 16.7%
other
  melting point: 76 to 79 °C

## COC1=C[C@@H]2[C@@H]3Cc4c(CN5CCCC5)cc(OC)c(OC(=O)Cc5ccc(Cl)c(Cl)c5)c4[C@]2(CCN3C)CC1=O [6g, (4bR,8aS,9S)-3,7-dimethoxy-11-methyl-6-oxo-1-(pyrrolidin-1-ylmethyl)-6,8a,9,10-tetrahydro-5H-9,4b-(epiminoethano)phenanthren-4-yl 2-(3,4-dichlorophenyl)acetate]
[1]
  IC50: > 25 µM
  inhibition at 2.5 µM: 20.3 ± 0.78%
  inhibition at 25 µM: 43.9 ± 1.11%
[2]
  IC50: 11.9 ± 0.6 µM
  inhibition at 2.5 µM: 35.3 ± 4.37%
  inhibition at 25 µM: 93.85 ± 0.2%
[3]
  IC50: > 25 µM
  inhibition at 2.5 µM: 6.59 ± 4.98%
  inhibition at 25 µM: 34.6 ± 2.06%
[4]
  IC50: > 25 µM
  inhibition at 2.5 µM: 11.8 ± 7.5%
  inhibition at 25 µM: 56 ± 5.88%
[5]
  IC50: 4.71 ± 0.48 µM
  inhibition at 2.5 µM: 9.72 ± 1.96%
  inhibition at 25 µM: 59.9 ± 16.9%
other
  melting point: 160 to 164 °C

## COC1=C[C@@H]2[C@@H]3Cc4c(CN5CCCC5)cc(OC)c(OC(=O)Cc5ccccc5C)c4[C@]2(CCN3C)CC1=O [6f, (4bR,8aS,9S)-3,7-dimethoxy-11-methyl-6-oxo-1-(pyrrolidin-1-ylmethyl)-6,8a,9,10-tetrahydro-5H-9,4b-(epiminoethano)phenanthren-4-yl 2-(o-tolyl)acetate]
[1]
  IC50: 25.1 ± 1.72 µM
  inhibition at 2.5 µM: 25 ± 1.05%
  inhibition at 25 µM: 57.09 ± 0.06%
[2]
  IC50: > 25 µM
  inhibition at 2.5 µM: 7.82 ± 4.1%
  inhibition at 25 µM: 58.7 ± 2.64%
[3]
  IC50: > 25 µM
  inhibition at 2.5 µM: 0%
  inhibition at 25 µM: 31.4 ± 3.72%
[4]
  IC50: > 25 µM
  inhibition at 2.5 µM: 20.8 ± 5.63%
  inhibition at 25 µM: 55.7 ± 6.94%
[5]
  IC50: 10.1 ± 0.42 µM
  inhibition at 2.5 µM: 16.8 ± 2.39%
  inhibition at 25 µM: 64.3 ± 14.6%
other
  melting point: 72 to 75 °C

## COC1=C[C@@H]2[C@@H]3Cc4c(CN5CCCC5)cc(OC)c(OC(=O)Cc5ccc(Cl)cc5)c4[C@]2(CCN3C)CC1=O [6a, (4bR,8aS,9S)-3,7-dimethoxy-11-methyl-6-oxo-1-(pyrrolidin-1-ylmethyl)-6,8a,9,10-tetrahydro-5H-9,4b-(epiminoethano)phenanthren-4-yl 2-(4-chlorophenyl)acetate]
[1]
  IC50: > 25 µM
  inhibition at 2.5 µM: 3.41 ± 0.82%
  inhibition at 25 µM: 37.4 ± 0.39%
[2]
  IC50: 11.5 ± 1.04 µM
  inhibition at 2.5 µM: 7.81 ± 5.42%
  inhibition at 25 µM: 88.49 ± 0.67%
[3]
  IC50: 14.3 ± 0.83 µM
  inhibition at 2.5 µM: 0%
  inhibition at 25 µM: 85.3 ± 1.62%
[4]
  IC50: 14.94 ± 0.06 µM
  inhibition at 2.5 µM: 12.9 ± 6.52%
  inhibition at 25 µM: 82.3 ± 4.36%
[5]
  IC50: 13 ± 0.62 µM
  inhibition at 2.5 µM: 17.9 ± 1.86%
  inhibition at 25 µM: 61.1 ± 4.71%
other
  melting point: 162 to 165 °C

## COC1=C[C@@H]2[C@@H]3Cc4c(CN5CCCC5)cc(OC)c(OC(=O)Cc5ccccc5OC)c4[C@]2(CCN3C)CC1=O [6k, (4bR,8aS,9S)-3,7-dimethoxy-11-methyl-6-oxo-1-(pyrrolidin-1-ylmethyl)-6,8a,9,10-tetrahydro-5H-9,4b-(epiminoethano)phenanthren-4-yl 2-(2-methoxyphenyl)acetate]
[1]
  inhibition at 2.5 µM: 16.6 ± 2.3%
  inhibition at 25 µM: 51.9 ± 6.36%
[2]
  inhibition at 2.5 µM: 0%
  inhibition at 25 µM: 44.1 ± 0.92%
[3]
  inhibition at 2.5 µM: 0.75 ± 1.29%
  inhibition at 25 µM: 24.4 ± 11%
[4]
  inhibition at 2.5 µM: 3.72 ± 1.8%
  inhibition at 25 µM: 36.9 ± 0.52%
[5]
  inhibition at 2.5 µM: 13.9 ± 4.06%
  inhibition at 25 µM: 63.5 ± 10.2%
other
  melting point: 180 to 182 °C

— PMC8200971, “Design, Synthesis, Biological Evaluation and Silico Prediction of Novel Sinomenine Derivatives” (Molecules, 2021)
